Data taken from PubChem BioAssay AID1259407 (Chemical Carcinogenesis Research Information System (CCRIS), 2018).
The source made the active and inactive calls. The rule behind the calls is not given here.

Tested on: CCRIS mutagenicity, Ames/micronucleus/aberration tests
Experiment: CCRIS mutagenicity studies
[1] = Test System: AMES SALMONELLA TYPHIMURIUM, Strain/Indicator: TA98, Metabolic Activation: HAMSTER, LIVER, S-9, AROCLOR 1254, Method: STANDARD PLATE
[2] = Test System: AMES SALMONELLA TYPHIMURIUM, Strain/Indicator: TA98, Metabolic Activation: NONE, Method: STANDARD PLATE
[3] = Test System: AMES SALMONELLA TYPHIMURIUM, Strain/Indicator: TA98, Metabolic Activation: RAT, LIVER, S-9, AROCLOR 1254, Method: STANDARD PLATE
[4] = Test System: AMES SALMONELLA TYPHIMURIUM, Strain/Indicator: TA100, Metabolic Activation: HAMSTER, LIVER, S-9, AROCLOR 1254, Method: STANDARD PLATE
[5] = Test System: AMES SALMONELLA TYPHIMURIUM, Strain/Indicator: TA100, Metabolic Activation: NONE, Method: STANDARD PLATE
[6] = Test System: AMES SALMONELLA TYPHIMURIUM, Strain/Indicator: TA100, Metabolic Activation: RAT, LIVER, S-9, AROCLOR 1254, Method: STANDARD PLATE
[7] = Test System: AMES SALMONELLA TYPHIMURIUM, Strain/Indicator: TA1535, Metabolic Activation: HAMSTER, LIVER, S-9, AROCLOR 1254, Method: STANDARD PLATE
[8] = Test System: AMES SALMONELLA TYPHIMURIUM, Strain/Indicator: TA1535, Metabolic Activation: NONE, Method: STANDARD PLATE
[9] = Test System: AMES SALMONELLA TYPHIMURIUM, Strain/Indicator: TA1535, Metabolic Activation: RAT, LIVER, S-9, AROCLOR 1254, Method: STANDARD PLATE
[10] = Test System: AMES SALMONELLA TYPHIMURIUM, Strain/Indicator: TA1537, Metabolic Activation: HAMSTER, LIVER, S-9, AROCLOR 1254, Method: STANDARD PLATE
[11] = Test System: AMES SALMONELLA TYPHIMURIUM, Strain/Indicator: TA1537, Metabolic Activation: NONE, Method: STANDARD PLATE
[12] = Test System: AMES SALMONELLA TYPHIMURIUM, Strain/Indicator: TA1537, Metabolic Activation: RAT, LIVER, S-9, AROCLOR 1254, Method: STANDARD PLATE
[13] = Test System: AMES SALMONELLA TYPHIMURIUM, Strain/Indicator: TA1538, Metabolic Activation: HAMSTER, LIVER, S-9, AROCLOR 1254, Method: STANDARD PLATE
[14] = Test System: AMES SALMONELLA TYPHIMURIUM, Strain/Indicator: TA1538, Metabolic Activation: NONE, Method: STANDARD PLATE
[15] = Test System: AMES SALMONELLA TYPHIMURIUM, Strain/Indicator: TA1538, Metabolic Activation: RAT, LIVER, S-9, AROCLOR 1254, Method: STANDARD PLATE
[16] = Test System: MOUSE LYMPHOMA, Strain/Indicator: L5178Y (TK+/TK-), Metabolic Activation: NONE, Method: SUSPENSION/PLATE
[17] = Test System: MOUSE LYMPHOMA, Strain/Indicator: L5178Y (TK+/TK-), Metabolic Activation: RAT, LIVER, S-9, AROCLOR 1254, Method: SUSPENSION/PLATE
[18] = Test System: AMES SALMONELLA TYPHIMURIUM, Strain/Indicator: TA98, Metabolic Activation: NONE, Method: PREINCUBATION

Compound	mutagenic call [1]	mutagenic call [2]	mutagenic call [3]	mutagenic call [4]	mutagenic call [5]	mutagenic call [6]	mutagenic call [7]	mutagenic call [8]	mutagenic call [9]	mutagenic call [10]	mutagenic call [11]	mutagenic call [12]	mutagenic call [13]	mutagenic call [14]	mutagenic call [15]	mutagenic call [16]	mutagenic call [17]	also measured
Clc1nnc(Cl)c2ccccc12	inactive; negative	inactive; negative	inactive; negative	inactive; negative	inactive; negative	inactive; negative	inactive; negative	inactive; negative	inactive; negative	inactive; negative	inactive; negative	inactive; negative	inactive; negative	inactive; negative	inactive; negative	active; positive. reevaluation of results: inconclusive	active; positive. reevaluation of results: positive	–
Cc1cc2c3c(cccc3c1)-c1cc3ccccc3cc1-2	–	–	–	–	–	–	–	–	–	–	–	–	–	–	–	–	–	mutagenic call (Test System: AMES SALMONELLA TYPHIMURIUM, Strain/Indicator: TA100, Metabolic Activation: RAT, LIVER, S-9, AROCLOR 1254): active; positive
COc1c(N2C[C@@H]3CCCN[C@@H]3C2)c(F)cc2c(=O)c(C(=O)O)cn(C3CC3)c12	–	–	–	–	–	–	–	–	–	–	–	–	–	–	–	–	–	mutagenic call (Test System: CHINESE HAMSTER V-79, Strain/Indicator: V-79 (HGPRT)/6-THIOGUANINE, Metabolic Activation: NONE, Method: STANDARD PLATE): inactive; negative
CCCCC/C=C/C=C/C=O	inactive; negative	inactive; negative	inactive; negative	inactive; negative	inactive; negative	inactive; negative	inactive; negative	inactive; negative	inactive; negative	inactive; negative	inactive; negative	inactive; negative	inactive; negative	inactive; negative	inactive; negative	inactive; negative. reevaluation of results: negative	inactive; negative. reevaluation of results: negative	–
O=C(O)Nc1ccc(-c2ccccc2)cc1	–	–	–	–	–	–	–	–	–	–	–	–	–	–	–	–	–	mutagenic call [18]: active; positive; mutagenic call (Test System: AMES SALMONELLA TYPHIMURIUM, Strain/Indicator: TA98, Metabolic Activation: RAT, LIVER, CYTOSOL, Method: PREINCUBATION): active; positive; mutagenic call (Test System: AMES SALMONELLA TYPHIMURIUM, Strain/Indicator: TA98, Metabolic Activation: RAT, LIVER, MICROSOMES, Method: PREINCUBATION): active; positive
c1ccc(-c2ccc(-c3ccccc3)cc2)cc1	inactive; negative	inactive; negative	inactive; negative	inactive; negative	inactive; negative	inactive; negative	inactive; negative	inactive; negative	inactive; negative	inactive; negative	inactive; negative	inactive; negative	inactive; negative	inactive; negative	inactive; negative	inactive; negative. reevaluation of results: negative	active; positive. reevaluation of results: equivocal	–
CCOC(=O)c1[nH]c2ccccc2c1N=Cc1ccc(O)cc1	–	inactive; negative	inactive; negative	–	inactive; negative	inactive; negative	–	–	–	–	–	–	–	–	–	–	–	mutagenic call (Test System: AMES SALMONELLA TYPHIMURIUM, Strain/Indicator: TA97, Metabolic Activation: NONE, Method: STANDARD PLATE): active; positive; mutagenic call (Test System: AMES SALMONELLA TYPHIMURIUM, Strain/Indicator: TA97, Metabolic Activation: RAT, LIVER, S-9, AROCLOR 1254, Method: STANDARD PLATE): inactive; negative; mutagenic call (Test System: AMES SALMONELLA TYPHIMURIUM, Strain/Indicator: TA102, Metabolic Activation: NONE, Method: STANDARD PLATE): inactive; negative; mutagenic call (Test System: AMES SALMONELLA TYPHIMURIUM, Strain/Indicator: TA102, Metabolic Activation: RAT, LIVER, S-9, AROCLOR 1254, Method: STANDARD PLATE): inactive; negative
O=c1ccc2ccc3occc3c2o1	–	inactive; negative	–	–	–	–	–	–	–	–	–	–	–	–	–	–	–	mutagenic call (Test System: AMES SALMONELLA TYPHIMURIUM, Strain/Indicator: TA98, Metabolic Activation: RAT, LIVER, S-9, PHENOBARBITAL, Method: STANDARD PLATE): inactive; negative
CC(=O)c1cc(NC(N)=O)ccc1OCC(O)CNC(C)(C)C (stereo unspecified)	–	–	–	–	–	–	–	–	–	–	–	–	–	–	–	–	–	mutagenic call [18]: inactive; negative; mutagenic call (Test System: AMES SALMONELLA TYPHIMURIUM, Strain/Indicator: TA98, Metabolic Activation: RAT, LIVER, S-9, AROCLOR 1254 (10 OR 50 µL/PLATE), Method: PREINCUBATION): inactive; negative; mutagenic call (Test System: AMES SALMONELLA TYPHIMURIUM, Strain/Indicator: TA100, Metabolic Activation: NONE, Method: PREINCUBATION): inactive; negative; mutagenic call (Test System: AMES SALMONELLA TYPHIMURIUM, Strain/Indicator: TA100, Metabolic Activation: RAT, LIVER, S-9, AROCLOR 1254 (10 OR 50 µL/PLATE ), Method: PREINCUBATION): active; positive; mutagenic call (Test System: AMES SALMONELLA TYPHIMURIUM, Strain/Indicator: TA1535, Metabolic Activation: NONE, Method: PREINCUBATION): inactive; negative; mutagenic call (Test System: AMES SALMONELLA TYPHIMURIUM, Strain/Indicator: TA1535, Metabolic Activation: RAT, LIVER, S-9, AROCLOR 1254 (10 OR 50 µL/PLATE), Method: PREINCUBATION): active; positive; mutagenic call (Test System: AMES SALMONELLA TYPHIMURIUM, Strain/Indicator: TA1537, Metabolic Activation: NONE, Method: PREINCUBATION): inactive; negative; mutagenic call (Test System: AMES SALMONELLA TYPHIMURIUM, Strain/Indicator: TA1537, Metabolic Activation: RAT, LIVER, S-9, AROCLOR 1254 (10 OR 50 µL/PLATE), Method: PREINCUBATION): inactive; negative; mutagenic call (Test System: E. COLI, Strain/Indicator: WP2 UVRA, Metabolic Activation: NONE, Method: PREINCUBATION): inactive; negative; mutagenic call (Test System: E. COLI, Strain/Indicator: WP2 UVRA, Metabolic Activation: RAT, LIVER, S-9, AROCLOR 1254 (10 OR 50 µL/PLATE), Method: PREINCUBATION): inactive; negative
